The text below walks through data of paper PMC7174758, “Synthesis and Biological Evaluation of HDAC Inhibitors With a Novel Zinc Binding Group” (Frontiers in Chemistry, 2020).

One data set concerns MCF-7. The data set is described as follows: MTT anti-proliferative assay, MCF-7. The note with it: Homo sapiens, MCF7, 48 h, read-out: IC50 MCF-7.
A further data set relates to A549. The data set is described as follows: MTT anti-proliferative assay, A549. The note with it: Homo sapiens, A549, 48 h, read-out: IC50 A549. (Tetrazolium assays rely on reduction of a dye to a coloured formazan, in cell work by metabolically active cells.)
The subject of a further data set is Hela. The data set is described as follows: MTT anti-proliferative assay, Hela. The note with it: Homo sapiens, 48 h, read-out: IC50 Hela.
Another data set concerns HepG2. The data set is described as follows: MTT anti-proliferative assay, HepG2. The conditions noted are these: Homo sapiens, HepG2, 48 h, read-out: IC50 HepG2.
For the next data set, the target named is T1, HDAC6 (Homo sapiens, UniProt Q9UBN7).
T1 construct: purchased Enzo Life Sciences BML-AK516
T1 sequence (Q9UBN7 1-1215): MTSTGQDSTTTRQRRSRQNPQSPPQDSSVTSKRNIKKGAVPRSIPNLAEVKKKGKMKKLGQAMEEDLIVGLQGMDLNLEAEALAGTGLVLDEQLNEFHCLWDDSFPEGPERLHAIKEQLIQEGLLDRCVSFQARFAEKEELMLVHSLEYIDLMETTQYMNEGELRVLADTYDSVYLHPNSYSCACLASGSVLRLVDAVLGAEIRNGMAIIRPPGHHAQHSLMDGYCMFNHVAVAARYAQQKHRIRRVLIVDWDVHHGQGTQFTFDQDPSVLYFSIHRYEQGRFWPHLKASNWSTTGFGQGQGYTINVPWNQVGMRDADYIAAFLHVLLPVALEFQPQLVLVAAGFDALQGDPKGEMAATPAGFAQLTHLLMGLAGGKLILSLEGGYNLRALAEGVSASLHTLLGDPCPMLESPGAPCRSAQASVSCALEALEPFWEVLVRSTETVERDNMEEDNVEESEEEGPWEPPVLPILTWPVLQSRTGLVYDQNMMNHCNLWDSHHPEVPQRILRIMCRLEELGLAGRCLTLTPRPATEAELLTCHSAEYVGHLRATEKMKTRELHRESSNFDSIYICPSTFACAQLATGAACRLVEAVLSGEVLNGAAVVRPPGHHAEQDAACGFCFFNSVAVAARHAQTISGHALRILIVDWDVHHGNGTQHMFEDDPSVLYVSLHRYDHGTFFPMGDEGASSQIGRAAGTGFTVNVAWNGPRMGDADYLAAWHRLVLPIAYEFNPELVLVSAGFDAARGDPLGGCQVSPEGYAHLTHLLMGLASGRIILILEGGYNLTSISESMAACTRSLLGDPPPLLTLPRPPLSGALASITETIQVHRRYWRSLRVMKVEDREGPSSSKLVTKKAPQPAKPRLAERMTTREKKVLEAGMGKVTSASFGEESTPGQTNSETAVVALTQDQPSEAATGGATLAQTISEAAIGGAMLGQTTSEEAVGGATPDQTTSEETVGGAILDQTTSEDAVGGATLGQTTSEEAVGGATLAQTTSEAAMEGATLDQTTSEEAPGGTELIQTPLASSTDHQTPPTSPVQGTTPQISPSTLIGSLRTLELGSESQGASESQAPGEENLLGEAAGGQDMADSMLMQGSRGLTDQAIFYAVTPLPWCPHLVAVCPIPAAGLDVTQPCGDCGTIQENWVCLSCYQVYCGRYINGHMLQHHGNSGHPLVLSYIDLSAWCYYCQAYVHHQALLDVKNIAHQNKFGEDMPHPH
The data set is described as follows: Fluor de Lys HDAC6 assay kit. The format is biochemical. The procedure: (§1) The generated fluorescence after the deacetylation of HDAC could be detected at the wavelengths of 485 nm (excitation) and 530 nm (emission) using the microplate reader (PerkinElmer, USA). The dose response of inhibition experiment was carried out in triplicate, and the IC50 data was calculated by GraphPad Prism 5.

Another data set relates to acetyl-α-tubulin. The data set is described as follows: Western blot, acetylation of α-tubulin in Hela cells. The format is cell-based, human. The note with it: 20 and 40 μM, 48 h. The method, then: (§2) Afterwards, the Hela cells were collected using centrifugation, and were then lysed by the lysate, which were carried out further centrifugation at 12,000 rpm for 30 min. The protein of supernatant obtained by centrifugation was quantified using the BCA kit (Beijing Solarbio Science & Technology Co., Ltd.), and the protein extracts were mixed with the SDS-PAGE protein loading buffer (Beijing Solarbio Science & Technology Co., Ltd.), which were subject to 100°C water bath for 10 min to sufficiently denaturate. The gel was gelatinized using the SDS Gel Kit (Beijing Solarbio Science & Technology Co., Ltd.) and protein extracts were separated by protein SDS-polyacrylamide gel electrophoresis and then transferred to Immobilon-NC Membrane (Beijing Solarbio Science & Technology Co., Ltd.). After the blocking with 5% non-fat dried milk in TBS for 90 min at room temperature, the membranes were incubated overnight with specific primary antibodies (AFFINITY BIOSCIENCE) at 4°C, which were further incubated with secondary antibodies for 2 h after washing three times with TBST. The chemiluminescence analysis system was applied to label the target protein with a specific primary antibody and the target protein was detected using a specific antibody.
Background: A western blot detects proteins with antibodies after separation by electrophoresis.

Another data set concerns WI-38. The data set is described as follows: MTT cytotoxicity assay, normal cell line WI-38. The note with it: Homo sapiens, WI-38, 48 h, read-out: IC50 WI-38.
Another data set concerns acetyl-histone H3. The data set is described as follows: Western blot, acetylation of histone H3 in Hela cells. The format is cell-based, human. The note with it: 20 and 40 μM, 48 h. The procedure: as §2
Data set [1] relates to HDACs extracted from Hela cervical cancer cells. The data set is described as follows: Enzyme inhibition assay, Hela nuclear extract (HDAC Inhibitor Drug Screening Kit). The conditions noted are these: read-out: Hela nuclear extract IC50; mean ± SD of three experiments.
The target of another data set is T2, HDAC1 (Homo sapiens, UniProt Q13547).
T2 construct: purchased Enzo Life Sciences BML-AK511
T2 sequence (Q13547 whole entry): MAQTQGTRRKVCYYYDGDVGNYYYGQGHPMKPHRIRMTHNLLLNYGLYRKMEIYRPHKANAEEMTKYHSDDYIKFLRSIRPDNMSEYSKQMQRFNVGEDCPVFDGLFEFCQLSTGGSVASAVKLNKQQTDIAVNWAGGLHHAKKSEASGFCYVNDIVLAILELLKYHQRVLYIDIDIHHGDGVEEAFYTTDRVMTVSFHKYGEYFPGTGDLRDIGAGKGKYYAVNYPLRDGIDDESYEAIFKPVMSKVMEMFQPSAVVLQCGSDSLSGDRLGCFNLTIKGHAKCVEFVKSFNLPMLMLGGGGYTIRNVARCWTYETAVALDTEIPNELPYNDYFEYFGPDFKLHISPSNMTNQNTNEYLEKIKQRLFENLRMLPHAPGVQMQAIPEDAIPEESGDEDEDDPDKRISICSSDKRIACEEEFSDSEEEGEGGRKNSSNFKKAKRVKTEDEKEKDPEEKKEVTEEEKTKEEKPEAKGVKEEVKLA
The data set is described as follows: Fluor de Lys HDAC1 assay kit. The data set is classed as biochemical. The note with it: three independent experiments, mean ± SD. The method, then:
as §1

Experimental for A549: (§3) The antitumor bioactivities of the tittle compounds in vitro were firstly evaluated against four different human tumor cell lines [breast lung cancer (A549), cervical cancer (Hela), liver cancer (HepG2), breast cancer (MCF-7)] via MTT assay, and a normal cell line [human lung fibroblast (WI-38)] was applied to assess the safety of the synthesized compounds. […] In this study, the tested compounds were diluted to the required concentration with culture medium, and growth inhibitory effects against the cell lines of the tittle compounds were determined by MTT colorimetric assay. […] The microplate reader was adopted to record the absorbance at 490 nm for each well of the plates.
Experimental for HepG2: as §3
Experimental for MCF-7: as §3
Experimental for WI-38: as §3

As a reminder, the IC50 is the concentration that gives 50% inhibition. A word on the melting point: it is the temperature, or range, at which the solid turns liquid. `O=C(CCCCCNC(=O)c1ccc(-c2ccccc2)cc1)NCCO` [b8, N-(6-((2-hydroxyethyl)amino)-6-oxohexyl)-[1, 1'-biphenyl]-4-carboxamide] gave a melting point of 147.6 to 148.5 °C. For the same compound, the IC50 with MCF-7 came to 40.1 ± 7.05 µM. Also, the IC50 in the data set with A549 is 26.5 ± 0.26 µM. Also, the IC50 with Hela turned out to be 13.7 ± 1.31 µM. Also, the IC50 with HepG2 is 28.4 ± 0.65 µM. The “inhibitory activity on HDAC6 relative to HDAC1” value at HDAC6 (HDAC6 vs HDAC1) is “more than ten folds”. At HDAC6 (three independent experiments, mean ± SD), this compound registered an IC50 of 4.2 ± 1.27 µM. In the data set with acetyl-α-tubulin, the “acetylation level of α-Tubulin” value is “increase”. In addition, the concentration for half-maximal inhibition (IC50) in the data set on WI-38 worked out at 95.9 ± 4.28 µM. Moreover, the “acetylation level of histone H3” value in the data set on acetyl-histone H3 is reported as “insensitive”. For the same compound, in data set [1], the 50% inhibitory concentration (IC50) came out at 22.5 ± 5.2 µM. The IC50 on HDAC1 is 56.5 ± 2.7 µM.
